Test results taken from patent US4362743A, “Antibacterial monic acid esters” (Beecham Group Limited, priority 1980, dated 1982).
≈ marks a conversion by molar mass, not a printed value. Like-named read-outs stand apart in the source and are kept apart here.

How the values were obtained:
Type in all cases: cell-based
[1] = test system: M. gallisepticum S6; experiment: Anti-mycoplasmal activity in vitro MIC; details: Mycoplasmoides gallisepticum, 144 h; M. gallisepticum S6; Friis broth, 0.9% agarose, 6 days 37° C.; read-out: M.I.C.
[2] = test system: Haemophilus influenzae Wy21; experiment: Human bacteria MIC; details: Haemophilus influenzae Wy21; nutrient agar, 5% chocolated horse blood, 18 hours 37° C.; read-out: M.I.C.
Experimental: The values were determined by serial dilutions in nutrient agar with 5% chocolated horse blood after incubations for 18 hours at 37° C.

[3] = test system: M. suipneumoniae Str. 11; experiment: Anti-mycoplasmal activity in vitro MIC; details: Mesomycoplasma hyopneumoniae
[4] = test system: M. dispar NCTC 10125; experiment: Anti-mycoplasmal activity in vitro MIC; details: 144 h
[5] = test system: M. suipneumoniae ATCC 25095; experiment: Anti-mycoplasmal activity in vitro MIC; details: Mesomycoplasma hyopneumoniae, ATCC25095, 144 h
[6] = test system: M. suipneumoniae NCTC 10110; experiment: Anti-mycoplasmal activity in vitro MIC; details: Mesomycoplasma hyopneumoniae, NCTC10110, 144 h
[7] = test system: M. suipneumoniae JF 435; experiment: Anti-mycoplasmal activity in vitro MIC; details: Mesomycoplasma hyopneumoniae, JF435, 144 h
[8] = test system: M. suipneumoniae TAM 6N; experiment: Anti-mycoplasmal activity in vitro MIC; details: Mesomycoplasma hyopneumoniae, TAM6N, 144 h
[9] = test system: Erysipelothrix rhusiopathiae NCTC 8163; experiment: Veterinary bacteria MIC; details: NCTC8163; Erysipelothrix rhusiopathiae NCTC 8163; Diagnostic Sensitivity Test Agar, 18 hours 37° C.; read-out: M.I.C.
Experimental: (§1) The values were determined using a two fold serial dilutions in Diagnostic Sensitivity Test Agar with an inoculum of 10^4 organisms and incubation for 18 hours at 37° C.

[10] = test system: Staph. aureus Oxford; experiment: Veterinary bacteria MIC; details: Staphylococcus aureus, Diagnostic Sensitivity Test Agar, 18 hours 37° C.
Experimental: as §1

[11] = test system: Past. haemolytica PA5; experiment: Veterinary bacteria MIC; details: Mannheimia haemolytica; Past. haemolytica PA5; Diagnostic Sensitivity Test Agar, 18 hours 37° C.; read-out: M.I.C.
Experimental: as §1

[12] = test system: E. coli NCTC 10418; experiment: Veterinary bacteria MIC; details: Escherichia coli
Experimental: as §1

[13] = test system: Strep. dysgalactiae SPD1; experiment: Veterinary bacteria MIC; details: Streptococcus dysgalactiae, Diagnostic Sensitivity Test Agar, 18 hours 37° C.
Experimental: as §1

[14] = test system: Strep. uberis SPU1; experiment: Veterinary bacteria MIC; details: Streptococcus uberis, Diagnostic Sensitivity Test Agar, 18 hours 37° C.
Experimental: as §1

[15] = test system: E. coli El; experiment: Veterinary bacteria MIC; details: Escherichia coli
Experimental: as §1

[16] = test system: Bord. bronchiseptica B08; experiment: Veterinary bacteria MIC; details: Bordetella bronchiseptica; Bord. bronchiseptica B08; Diagnostic Sensitivity Test Agar, 18 hours 37° C.; read-out: M.I.C.
Experimental: as §1

[17] = test system: S. typhimurium S18; experiment: Veterinary bacteria MIC; details: Salmonella enterica
Experimental: as §1

[18] = test system: Bord. brochiasetpica B09; experiment: Veterinary bacteria MIC; details: Diagnostic Sensitivity Test Agar, 18 hours 37° C.
Experimental: as §1

[19] = test system: Staph. aureus B4 (pen. resistant); experiment: Veterinary bacteria MIC; details: Staphylococcus aureus, Diagnostic Sensitivity Test Agar, 18 hours 37° C.
Experimental: as §1

[20] = test system: Past. multocida PA1; experiment: Veterinary bacteria MIC; details: Pasteurella multocida, Diagnostic Sensitivity Test Agar, 18 hours 37° C.
Experimental: as §1

[21] = test system: Strep. suis (Group D) SPS11; experiment: Veterinary bacteria MIC; details: Streptococcus suis
Experimental: as §1

[22] = test system: Corynebacterium pyogenes CY1; experiment: Veterinary bacteria MIC; details: Trueperella pyogenes
Experimental: as §1

[23] = test system: Strep. agalactiae SPA1; experiment: Veterinary bacteria MIC; details: Streptococcus agalactiae, Diagnostic Sensitivity Test Agar, 18 hours 37° C.
Experimental: as §1

[24] = test system: Staph. aureus 152 (pen. sens); experiment: Veterinary bacteria MIC; details: Staphylococcus aureus, Diagnostic Sensitivity Test Agar, 18 hours 37° C.
Experimental: as §1

[25] = test system: Past. multocida PA2; experiment: Veterinary bacteria MIC; details: Pasteurella multocida; Past. multocida PA2; Diagnostic Sensitivity Test Agar, 18 hours 37° C.; read-out: M.I.C.
Experimental: as §1

[26] = test system: S. dublin S7; experiment: Veterinary bacteria MIC; details: Salmonella enterica
Experimental: as §1

[27] = test system: M. suipneumoniae J2206/183b; experiment: Anti-mycoplasmal activity in vitro MIC; details: Mesomycoplasma hyopneumoniae, 144 h
[28] = test system: M. suipneumoniae MS16; experiment: Anti-mycoplasmal activity in vitro MIC; details: Mesomycoplasma hyopneumoniae
[29] = test system: M. hyorhinis ATCC 23234; experiment: Anti-mycoplasmal activity in vitro MIC; details: Mesomycoplasma hyorhinis, ATCC23234, 144 h
[30] = test system: M. pneumoniae ATCC 15492; experiment: Anti-mycoplasmal activity in vitro MIC; details: Mycoplasmoides pneumoniae, ATCC15492, 144 h; M. pneumoniae ATCC 15492; Friis broth, 0.9% agarose, 6 days 37° C.; read-out: M.I.C.

| Structure (SMILES) | MIC [1] | MIC [2] | MIC [4] | MIC [9] | MIC [10] | MIC [11] | MIC [13] | MIC [14] | MIC [16] | MIC [18] | MIC [19] | MIC [20] | MIC [23] | MIC [24] | MIC [25] | MIC [29] | MIC [30] | other results |
| --- | --- | --- | --- | --- | --- | --- | --- | --- | --- | --- | --- | --- | --- | --- | --- | --- | --- | --- |
| C/C(=C\C(=O)OCCCC(=NO)c1ccccc1)C[C@@H]1OC[C@H](C[C@@H]2O[C@H]2[C@@H](C)[C@H](C)O)[C@@H](O)[C@H]1O [Example 1, 4-Hydroxyimino-4-phenylbutyl monate A] | 10 µg/mL (≈ 19.8 µM) | 0.5 µg/mL (≈ 0.989 µM) | 0.05 µg/mL (≈ 0.0989 µM) | 20 µg/mL (≈ 39.6 µM) | 0.625 µg/mL (≈ 1.24 µM) | 10 µg/mL (≈ 19.8 µM) | 0.625 µg/mL (≈ 1.24 µM) | 0.156 µg/mL (≈ 0.309 µM) | 40 µg/mL (≈ 79.1 µM) | 20 µg/mL (≈ 39.6 µM) | 0.625 µg/mL (≈ 1.24 µM) | 2.5 µg/mL (≈ 4.94 µM) | 0.625 µg/mL (≈ 1.24 µM) | 0.625 µg/mL (≈ 1.24 µM) | 0.625 µg/mL (≈ 1.24 µM) | 0.1 µg/mL (≈ 0.198 µM) | 2.5 µg/mL (≈ 4.94 µM) | MIC ([3]; 144 h, M. suipneumoniae Str. 11, Friis broth, 0.9% agarose, 6 days 37° C., read-out: M.I.C.): 0.1 µg/mL (≈ 0.198 µM); MIC ([5]; M. suipneumoniae ATCC 25095, Friis broth, 0.9% agarose, 6 days 37° C., read-out: M.I.C.): 0.25 µg/mL (≈ 0.494 µM); MIC ([6]; M. suipneumoniae NCTC 10110, Friis broth, 0.9% agarose, 6 days 37° C., read-out: M.I.C.): 0.25 µg/mL (≈ 0.494 µM); MIC ([7]; M. suipneumoniae JF 435, Friis broth, 0.9% agarose, 6 days 37° C., read-out: M.I.C.): 0.25 µg/mL (≈ 0.494 µM); MIC ([8]; M. suipneumoniae TAM 6N, Friis broth, 0.9% agarose, 6 days 37° C., read-out: M.I.C.): 0.25 µg/mL (≈ 0.494 µM); MIC ([12]; NCTC10418, 18 h): > 80 µg/mL; MIC ([15]; 18 h): > 80 µg/mL; MIC ([17]; TYPHIMURIUM, 18 h): > 80 µg/mL; MIC ([21]; 18 h): 5 µg/mL (≈ 9.89 µM); MIC ([22]; CY1, 18 h): > 80 µg/mL; MIC ([26]; S7, 18 h): > 80 µg/mL; MIC ([27]; M. suipneumoniae J2206/183b, Friis broth, 0.9% agarose, 6 days 37° C., read-out: M.I.C.): 0.25 µg/mL (≈ 0.494 µM); MIC ([28]; 144 h, M. suipneumoniae MS16, Friis broth, 0.9% agarose, 6 days 37° C., read-out: M.I.C.): 0.1 µg/mL (≈ 0.198 µM) |
| C/C(=C\C(=O)OCCCC(=NNC(N)=O)c1ccccc1)C[C@@H]1OC[C@H](C[C@@H]2O[C@H]2[C@@H](C)[C@H](C)O)[C@@H](O)[C@H]1O [Example 2, 4-Phenyl-4-semicarbazonobutyl monate A] | 10 µg/mL (≈ 18.3 µM) | 1 µg/mL (≈ 1.83 µM) | 0.1 µg/mL (≈ 0.183 µM) | 10 µg/mL (≈ 18.3 µM) | 5 µg/mL (≈ 9.13 µM) | 80 µg/mL (≈ 146 µM) | 0.625 µg/mL (≈ 1.14 µM) | 0.625 µg/mL (≈ 1.14 µM) | > 80 µg/mL | 80 µg/mL (≈ 146 µM) | 10 µg/mL (≈ 18.3 µM) | 20 µg/mL (≈ 36.5 µM) | 2.5 µg/mL (≈ 4.56 µM) | 5 µg/mL (≈ 9.13 µM) | 5 µg/mL (≈ 9.13 µM) | 0.25 µg/mL (≈ 0.456 µM) | 2.5 µg/mL (≈ 4.56 µM) | MIC ([3]; STR.11, 144 h): 0.25 µg/mL (≈ 0.456 µM); MIC [5]: 0.25 µg/mL (≈ 0.456 µM); MIC [6]: 0.5 µg/mL (≈ 0.913 µM); MIC [7]: 0.5 µg/mL (≈ 0.913 µM); MIC [8]: 0.5 µg/mL (≈ 0.913 µM); MIC ([12]; NCTC10418, E. coli NCTC 10418, Diagnostic Sensitivity Test Agar, 18 hours 37° C., read-out: M.I.C.): > 80 µg/mL; MIC ([15]; E. coli El, Diagnostic Sensitivity Test Agar, 18 hours 37° C., read-out: M.I.C.): > 80 µg/mL; MIC ([17]; S. typhimurium S18, Diagnostic Sensitivity Test Agar, 18 hours 37° C., read-out: M.I.C.): > 80 µg/mL; MIC ([21]; Strep. suis (Group D) SPS11, Diagnostic Sensitivity Test Agar, 18 hours 37° C., read-out: M.I.C.): 10 µg/mL (≈ 18.3 µM); MIC ([22]; Corynebacterium pyogenes CY1, Diagnostic Sensitivity Test Agar, 18 hours 37° C., read-out: M.I.C.): > 80 µg/mL; MIC ([26]; S. dublin S7, Diagnostic Sensitivity Test Agar, 18 hours 37° C., read-out: M.I.C.): > 80 µg/mL; MIC ([27]; J2206/183B): 0.5 µg/mL (≈ 0.913 µM); MIC ([28]; MS16, 144 h): 0.25 µg/mL (≈ 0.456 µM) |
